Results from patent US20260053760A1, “Compositions Suitable for Use on Skin Afflicted with Eczema” (Kenvue Brands LLC, priority 2022, published 2026).

Test system: Staphylococcus epidermidis (ATCC 12228)
Experiment: In vitro bacteria competition assay (co-culture)
Type: cell-based
Conditions: 1:1 co-culture with S. aureus in Nutrient Broth, 24 hours aerobic, colony counts; percentages w/v %
Procedure: In vitro bacteria competition assay evaluated Staphylococcus epidermidis (ATCC 12228, skin health associated strain) and Staphylococcus aureus (ATCC 6538, human lesion isolate) co-culture in the presence of test materials. Percentages are w/v % in liquid medium (Nutrient Broth, Culture Media and Supplies Inc.) To mimic the microenvironment of the skin surface, an aerobic, co-culture system of S. epidermidis and S. aureus was established. 50 μL S. epidermidis and 50 μL S. aureus (a 1:1 ratio) were inoculated (50 μL at approximately 5.0×10^6 CFU/mL each) in Nutrient Broth and in the presence of the test materials as specified in Table 14 below. [table] Test groups were incubated aerobically for 24 hours (n=3 per test group) After 24 hours, each test group was plated onto agar and incubated aerobically for 24 hours […]. After incubation, colonies were counted, and CFU/mL calculated. S. epidermidis and S. aureus colonies were differentiated on agar (Tryptic Soy Agar+5% sheep's blood, BD Diagnostics) based on representative morphology.

Compound: CC(O)C(=O)O (stereo not shown) [Lactic Acid (1.1%), Lactic acid]
- Bacteria Competition Assay: S. epidermidis growth versus untreated: inhibited
